Measurements published in the kinase profiling compilation of Christmann-Franck et al. (2016).

How the values were obtained:
ROCK2 (human) = ROCK2 (human) (UniProt O75116); experiment: KINOMEscan competition binding; settings: compound 10.0 µM
PIK3CD (human) = PIK3CD (human) (UniProt O00329); experiment: KINOMEscan competition binding; settings: compound 10.0 µM
MAPK7 (human) = MAPK7 (human) (UniProt Q13164); experiment: KINOMEscan competition binding; settings: compound 10.0 µM
EPHA1 (human) = EPHA1 (human) (UniProt P21709); experiment: KINOMEscan competition binding; settings: compound 10.0 µM
STK11 (human) = STK11 (human) (UniProt Q15831); experiment: KINOMEscan competition binding; settings: compound 10.0 µM
FGFR2 (human) = FGFR2 (human) (UniProt P21802); experiment: KINOMEscan competition binding; settings: compound 10.0 µM
TTK (human) = TTK (human) (UniProt P33981); experiment: KINOMEscan competition binding; settings: compound 10.0 µM
DDR2 (human) = DDR2 (human) (UniProt Q16832); experiment: KINOMEscan competition binding; settings: compound 10.0 µM
DDR2 (human), sequence (Q16832 whole entry, looked up): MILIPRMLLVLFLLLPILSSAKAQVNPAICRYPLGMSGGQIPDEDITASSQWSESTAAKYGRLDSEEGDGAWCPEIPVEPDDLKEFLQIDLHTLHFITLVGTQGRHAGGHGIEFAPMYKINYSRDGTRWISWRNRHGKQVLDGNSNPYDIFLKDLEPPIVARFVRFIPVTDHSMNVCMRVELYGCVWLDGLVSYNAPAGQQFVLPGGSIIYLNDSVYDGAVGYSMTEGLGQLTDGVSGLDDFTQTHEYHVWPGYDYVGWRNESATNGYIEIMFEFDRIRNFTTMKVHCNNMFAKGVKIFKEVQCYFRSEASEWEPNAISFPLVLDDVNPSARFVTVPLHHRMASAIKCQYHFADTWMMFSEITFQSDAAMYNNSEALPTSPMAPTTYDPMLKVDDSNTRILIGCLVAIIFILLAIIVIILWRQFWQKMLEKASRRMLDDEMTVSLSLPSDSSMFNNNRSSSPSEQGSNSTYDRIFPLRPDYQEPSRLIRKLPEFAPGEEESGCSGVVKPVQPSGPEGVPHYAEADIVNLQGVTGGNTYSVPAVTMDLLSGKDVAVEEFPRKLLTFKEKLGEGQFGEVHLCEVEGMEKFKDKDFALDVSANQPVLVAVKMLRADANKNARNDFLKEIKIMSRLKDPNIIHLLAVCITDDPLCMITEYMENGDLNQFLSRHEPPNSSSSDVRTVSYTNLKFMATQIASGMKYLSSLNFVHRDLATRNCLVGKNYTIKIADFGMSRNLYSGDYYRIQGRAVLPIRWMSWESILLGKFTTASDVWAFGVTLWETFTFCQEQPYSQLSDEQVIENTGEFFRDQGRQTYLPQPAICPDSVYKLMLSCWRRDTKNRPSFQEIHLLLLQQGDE

SRPK2 (human) = SRPK2 (human) (UniProt P78362); experiment: KINOMEscan competition binding; settings: compound 10.0 µM
MAPK4 (human) = MAPK4 (human) (UniProt P31152); experiment: KINOMEscan competition binding; settings: compound 10.0 µM
NUAK1 (human) = NUAK1 (human) (UniProt O60285); experiment: KINOMEscan competition binding; settings: compound 10.0 µM
SRPK1 (human) = SRPK1 (human) (UniProt Q96SB4); experiment: KINOMEscan competition binding; settings: compound 10.0 µM
PDPK1 (human) = PDPK1 (human) (UniProt O15530); experiment: KINOMEscan competition binding; settings: compound 10.0 µM
PRKX (human) = PRKX (human) (UniProt P51817); experiment: KINOMEscan competition binding; settings: compound 10.0 µM
CDK15 (human) = CDK15 (human) (UniProt Q96Q40); experiment: KINOMEscan competition binding; settings: compound 10.0 µM
LIMK2 (human) = LIMK2 (human) (UniProt P53671); experiment: KINOMEscan competition binding; settings: compound 10.0 µM
EPHB3 (human) = EPHB3 (human) (UniProt P54753); experiment: KINOMEscan competition binding; settings: compound 10.0 µM
IGF1R (human) = IGF1R (human) (UniProt P08069); experiment: KINOMEscan competition binding; settings: compound 10.0 µM
[1] = molecular target: JAK3 JH1 catalytic (human) (UniProt P52333); experiment: KINOMEscan competition binding; settings: compound 10.0 µM
MST4 (human) = MST4 (human) (UniProt Q9P289); experiment: KINOMEscan competition binding; settings: compound 10.0 µM
ULK2 (human) = ULK2 (human) (UniProt Q8IYT8); experiment: KINOMEscan competition binding; settings: compound 10.0 µM
[2] = molecular target: TYK2 JH1 catalytic (human) (UniProt P29597); experiment: KINOMEscan competition binding; settings: compound 10.0 µM
FGFR3 (human) = FGFR3 (human) (UniProt P22607); experiment: KINOMEscan competition binding; settings: compound 10.0 µM
CHEK2 (human) = CHEK2 (human) (UniProt O96017); experiment: KINOMEscan competition binding; settings: compound 10.0 µM
TEK (human) = TEK (human) (UniProt Q02763); experiment: KINOMEscan competition binding; settings: compound 10.0 µM
TEK (human), sequence (Q02763 whole entry, looked up): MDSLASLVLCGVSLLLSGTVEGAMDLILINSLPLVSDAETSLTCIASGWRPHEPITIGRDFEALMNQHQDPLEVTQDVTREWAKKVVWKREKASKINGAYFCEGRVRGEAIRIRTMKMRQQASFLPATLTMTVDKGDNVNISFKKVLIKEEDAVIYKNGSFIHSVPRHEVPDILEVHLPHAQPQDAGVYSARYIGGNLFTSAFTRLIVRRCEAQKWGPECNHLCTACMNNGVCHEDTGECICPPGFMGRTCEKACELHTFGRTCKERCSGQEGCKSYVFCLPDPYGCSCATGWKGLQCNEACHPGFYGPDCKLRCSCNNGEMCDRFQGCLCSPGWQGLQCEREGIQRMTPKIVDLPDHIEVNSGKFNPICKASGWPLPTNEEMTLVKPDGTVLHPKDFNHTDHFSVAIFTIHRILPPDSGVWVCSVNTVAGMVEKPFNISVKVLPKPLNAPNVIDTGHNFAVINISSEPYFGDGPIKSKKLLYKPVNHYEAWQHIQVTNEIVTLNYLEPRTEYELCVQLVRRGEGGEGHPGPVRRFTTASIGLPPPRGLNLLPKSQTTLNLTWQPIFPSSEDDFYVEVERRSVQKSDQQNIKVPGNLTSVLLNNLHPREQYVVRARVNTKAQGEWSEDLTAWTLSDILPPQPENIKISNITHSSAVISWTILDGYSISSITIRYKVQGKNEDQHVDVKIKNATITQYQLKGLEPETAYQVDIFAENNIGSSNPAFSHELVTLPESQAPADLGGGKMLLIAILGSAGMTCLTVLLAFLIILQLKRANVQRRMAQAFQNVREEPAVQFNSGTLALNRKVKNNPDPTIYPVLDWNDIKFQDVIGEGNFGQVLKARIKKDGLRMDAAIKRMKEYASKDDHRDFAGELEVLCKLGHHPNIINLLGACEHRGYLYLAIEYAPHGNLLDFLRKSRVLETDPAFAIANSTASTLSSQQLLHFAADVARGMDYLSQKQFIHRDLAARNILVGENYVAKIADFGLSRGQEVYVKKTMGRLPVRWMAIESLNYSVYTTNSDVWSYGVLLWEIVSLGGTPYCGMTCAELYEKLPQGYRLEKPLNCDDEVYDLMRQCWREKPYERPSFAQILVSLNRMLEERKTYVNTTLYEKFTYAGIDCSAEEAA

[3] = molecular target: JAK2 JH1 catalytic (human) (UniProt O60674); experiment: KINOMEscan competition binding; settings: compound 10.0 µM
MAP2K4 (human) = MAP2K4 (human) (UniProt P45985); experiment: KINOMEscan competition binding; settings: compound 10.0 µM
CDK3 (human) = CDK3 (human) (UniProt Q00526); experiment: KINOMEscan competition binding; settings: compound 10.0 µM
EPHB1 (human) = EPHB1 (human) (UniProt P54762); experiment: KINOMEscan competition binding; settings: compound 10.0 µM
BMPR1A (human) = BMPR1A (human) (UniProt P36894); experiment: KINOMEscan competition binding; settings: compound 10.0 µM
MKNK1 (human) = MKNK1 (human) (UniProt Q9BUB5); experiment: KINOMEscan competition binding; settings: compound 10.0 µM
SYK (human) = SYK (human) (UniProt P43405); experiment: KINOMEscan competition binding; settings: compound 10.0 µM
CSNK1G3 (human) = CSNK1G3 (human) (UniProt Q9Y6M4); experiment: KINOMEscan competition binding; settings: compound 10.0 µM
CAMK1G (human) = CAMK1G (human) (UniProt Q96NX5); experiment: KINOMEscan competition binding; settings: compound 10.0 µM
CAMK1G (human), sequence (Q96NX5 whole entry, looked up): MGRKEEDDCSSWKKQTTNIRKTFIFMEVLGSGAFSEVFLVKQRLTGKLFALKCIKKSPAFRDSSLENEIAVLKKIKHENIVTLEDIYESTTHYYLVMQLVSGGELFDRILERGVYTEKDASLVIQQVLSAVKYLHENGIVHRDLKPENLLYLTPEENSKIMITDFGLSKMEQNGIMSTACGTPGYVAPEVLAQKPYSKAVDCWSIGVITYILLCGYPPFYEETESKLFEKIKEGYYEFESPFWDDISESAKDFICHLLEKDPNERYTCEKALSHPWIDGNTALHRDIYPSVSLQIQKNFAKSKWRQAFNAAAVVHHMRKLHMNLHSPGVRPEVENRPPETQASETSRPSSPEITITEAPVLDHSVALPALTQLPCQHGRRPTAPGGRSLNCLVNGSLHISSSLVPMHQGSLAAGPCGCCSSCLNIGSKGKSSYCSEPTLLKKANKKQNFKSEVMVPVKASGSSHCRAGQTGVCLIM

TLK1 (human) = TLK1 (human) (UniProt Q9UKI8); experiment: KINOMEscan competition binding; settings: compound 10.0 µM
PRKCE (human) = PRKCE (human) (UniProt Q02156); experiment: KINOMEscan competition binding; settings: compound 10.0 µM
PRKCE (human), sequence (Q02156 whole entry, looked up): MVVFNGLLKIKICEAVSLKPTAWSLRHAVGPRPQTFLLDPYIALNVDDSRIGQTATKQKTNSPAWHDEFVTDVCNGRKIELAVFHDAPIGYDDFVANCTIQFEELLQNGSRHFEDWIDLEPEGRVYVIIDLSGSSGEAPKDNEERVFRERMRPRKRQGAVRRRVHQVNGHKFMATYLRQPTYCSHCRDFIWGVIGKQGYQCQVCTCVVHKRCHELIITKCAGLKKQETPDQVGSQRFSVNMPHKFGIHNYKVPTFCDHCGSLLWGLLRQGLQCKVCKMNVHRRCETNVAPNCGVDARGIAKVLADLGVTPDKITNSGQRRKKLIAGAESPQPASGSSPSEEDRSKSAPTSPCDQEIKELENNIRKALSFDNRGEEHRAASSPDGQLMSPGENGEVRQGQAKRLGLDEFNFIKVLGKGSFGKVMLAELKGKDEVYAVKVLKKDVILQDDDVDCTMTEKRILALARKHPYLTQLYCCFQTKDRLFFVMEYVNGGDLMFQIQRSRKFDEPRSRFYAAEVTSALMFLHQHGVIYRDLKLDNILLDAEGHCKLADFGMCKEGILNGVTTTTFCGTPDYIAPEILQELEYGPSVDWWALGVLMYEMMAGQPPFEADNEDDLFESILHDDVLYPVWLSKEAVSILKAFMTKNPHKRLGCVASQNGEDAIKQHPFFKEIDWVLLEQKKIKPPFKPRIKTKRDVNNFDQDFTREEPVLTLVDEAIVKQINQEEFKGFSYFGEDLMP

PKMYT1 (human) = PKMYT1 (human) (UniProt Q99640); experiment: KINOMEscan competition binding; settings: compound 10.0 µM
MAPK1 (human) = MAPK1 (human) (UniProt P28482); experiment: KINOMEscan competition binding
MAPK1 (human), sequence (P28482 whole entry, looked up): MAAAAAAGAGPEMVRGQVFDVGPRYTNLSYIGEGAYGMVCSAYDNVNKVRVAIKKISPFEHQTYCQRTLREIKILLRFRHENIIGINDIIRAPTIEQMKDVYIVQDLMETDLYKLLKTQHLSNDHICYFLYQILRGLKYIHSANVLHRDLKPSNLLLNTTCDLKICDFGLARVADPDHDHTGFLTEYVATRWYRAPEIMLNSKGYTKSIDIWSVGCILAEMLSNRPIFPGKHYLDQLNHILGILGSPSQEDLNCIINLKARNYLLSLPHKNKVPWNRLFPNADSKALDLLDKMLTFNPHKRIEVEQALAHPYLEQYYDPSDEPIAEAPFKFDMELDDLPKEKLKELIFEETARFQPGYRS

CAMKK2 (human) = CAMKK2 (human) (UniProt Q96RR4); experiment: KINOMEscan competition binding; settings: compound 10.0 µM
CAMKK2 (human), sequence (Q96RR4 whole entry, looked up): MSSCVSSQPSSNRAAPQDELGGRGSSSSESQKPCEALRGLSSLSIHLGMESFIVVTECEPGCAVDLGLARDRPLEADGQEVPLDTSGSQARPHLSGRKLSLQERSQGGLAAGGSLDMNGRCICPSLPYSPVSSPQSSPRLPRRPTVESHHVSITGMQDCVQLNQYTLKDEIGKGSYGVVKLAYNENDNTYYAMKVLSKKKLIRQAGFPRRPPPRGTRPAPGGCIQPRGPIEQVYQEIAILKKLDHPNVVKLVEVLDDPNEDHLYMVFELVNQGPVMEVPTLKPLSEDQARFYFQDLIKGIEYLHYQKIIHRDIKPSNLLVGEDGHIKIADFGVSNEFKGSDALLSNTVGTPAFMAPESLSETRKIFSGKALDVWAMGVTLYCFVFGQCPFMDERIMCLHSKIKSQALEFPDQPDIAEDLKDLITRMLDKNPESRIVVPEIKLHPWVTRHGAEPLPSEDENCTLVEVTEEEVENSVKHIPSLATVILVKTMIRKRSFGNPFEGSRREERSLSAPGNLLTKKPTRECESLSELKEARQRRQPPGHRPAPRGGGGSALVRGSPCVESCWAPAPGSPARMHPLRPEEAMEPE

PAK1 (human) = PAK1 (human) (UniProt Q13153); experiment: KINOMEscan competition binding; settings: compound 10.0 µM
PAK6 (human) = PAK6 (human) (UniProt Q9NQU5); experiment: KINOMEscan competition binding; settings: compound 10.0 µM
FES (human) = FES (human) (UniProt P07332); experiment: Z-Lyte, FRET
FES (human), sequence (P07332 whole entry, looked up): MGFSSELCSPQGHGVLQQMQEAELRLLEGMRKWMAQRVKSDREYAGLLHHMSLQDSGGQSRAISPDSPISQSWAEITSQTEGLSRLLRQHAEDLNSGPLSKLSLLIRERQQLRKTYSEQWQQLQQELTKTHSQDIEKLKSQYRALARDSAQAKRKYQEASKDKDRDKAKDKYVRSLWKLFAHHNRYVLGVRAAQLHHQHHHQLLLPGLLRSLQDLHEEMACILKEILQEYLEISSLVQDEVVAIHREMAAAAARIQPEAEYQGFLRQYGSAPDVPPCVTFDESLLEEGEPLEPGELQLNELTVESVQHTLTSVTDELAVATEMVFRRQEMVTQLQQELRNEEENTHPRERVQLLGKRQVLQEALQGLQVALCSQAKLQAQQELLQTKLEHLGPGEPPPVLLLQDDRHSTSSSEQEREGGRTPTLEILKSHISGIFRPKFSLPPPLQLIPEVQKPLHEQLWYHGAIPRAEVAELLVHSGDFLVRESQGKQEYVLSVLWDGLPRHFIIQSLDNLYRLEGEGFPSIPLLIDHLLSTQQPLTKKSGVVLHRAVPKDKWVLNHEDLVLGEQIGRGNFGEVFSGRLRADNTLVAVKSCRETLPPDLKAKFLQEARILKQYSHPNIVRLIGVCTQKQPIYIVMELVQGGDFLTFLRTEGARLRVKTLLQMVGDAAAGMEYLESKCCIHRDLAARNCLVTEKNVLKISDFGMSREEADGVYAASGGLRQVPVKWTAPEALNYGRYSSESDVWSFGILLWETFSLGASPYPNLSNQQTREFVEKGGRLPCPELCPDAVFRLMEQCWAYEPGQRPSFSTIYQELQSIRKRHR

## CCOc1cc(N2CCC(N3CCCCC3)CC2)ccc1Nc1nc(Nc2ccccc2S(=O)(=O)C(C)C)c2cn[nH]c2n1
ROCK2 (human)
  kinase still bound, per cent of control: 25%
PIK3CD (human)
  kinase still bound, per cent of control: 100%
MAPK7 (human)
  kinase still bound, per cent of control: 0.9%
EPHA1 (human)
  kinase still bound, per cent of control: 100%
STK11 (human)
  kinase still bound, per cent of control: 100%
FGFR2 (human)
  kinase still bound, per cent of control: 100%
TTK (human)
  kinase still bound, per cent of control: 6.5%
DDR2 (human)
  kinase still bound, per cent of control: 93%
SRPK2 (human)
  kinase still bound, per cent of control: 100%
MAPK4 (human)
  kinase still bound, per cent of control: 100%
NUAK1 (human)
  kinase still bound, per cent of control: 100%
SRPK1 (human)
  kinase still bound, per cent of control: 100%
PDPK1 (human)
  kinase still bound, per cent of control: 100%
PRKX (human)
  kinase still bound, per cent of control: 100%
CDK15 (human)
  kinase still bound, per cent of control: 100%
LIMK2 (human)
  kinase still bound, per cent of control: 51%
EPHB3 (human)
  kinase still bound, per cent of control: 100%
IGF1R (human)
  kinase still bound, per cent of control: 0.25%
[1]
  kinase still bound, per cent of control: 84%
MST4 (human)
  kinase still bound, per cent of control: 100%
ULK2 (human)
  kinase still bound, per cent of control: 3.4%
[2]
  kinase still bound, per cent of control: 87%
FGFR3 (human)
  kinase still bound, per cent of control: 94%
CHEK2 (human)
  kinase still bound, per cent of control: 23%
TEK (human)
  kinase still bound, per cent of control: 100%
[3]
  kinase still bound, per cent of control: 50%
MAP2K4 (human)
  kinase still bound, per cent of control: 8.2%
CDK3 (human)
  kinase still bound, per cent of control: 85%
EPHB1 (human)
  kinase still bound, per cent of control: 100%
BMPR1A (human)
  kinase still bound, per cent of control: 100%
MKNK1 (human)
  kinase still bound, per cent of control: 53%
SYK (human)
  kinase still bound, per cent of control: 100%
CSNK1G3 (human)
  kinase still bound, per cent of control: 50%
CAMK1G (human)
  kinase still bound, per cent of control: 26%
TLK1 (human)
  kinase still bound, per cent of control: 75%
PRKCE (human)
  kinase still bound, per cent of control: 62%
PKMYT1 (human)
  kinase still bound, per cent of control: 69%
MAPK1 (human)
  IC50: 6500 µM
MAPK1 (human); compound 10.0 µM
  kinase still bound, per cent of control: 0.7%
CAMKK2 (human)
  kinase still bound, per cent of control: 46%
PAK1 (human)
  kinase still bound, per cent of control: 90%
PAK6 (human)
  kinase still bound, per cent of control: 100%
FES (human)
  IC50: 67 µM

## CCN1CCN(Cc2ccc(NC(=O)c3ccc(C)c(Oc4ccnc5[nH]ccc45)c3)cc2C(F)(F)F)CC1
FGFR2 (human)
  kinase still bound, per cent of control: 1.4%
TTK (human)
  kinase still bound, per cent of control: 24%
DDR2 (human)
  kinase still bound, per cent of control: 5.1%
CDK15 (human)
  kinase still bound, per cent of control: 6%
[1]
  kinase still bound, per cent of control: 11%
FGFR3 (human)
  kinase still bound, per cent of control: 9.4%
TEK (human)
  kinase still bound, per cent of control: 0%
[3]
  kinase still bound, per cent of control: 2.4%
SYK (human)
  kinase still bound, per cent of control: 6.2%
CAMK1G (human)
  kinase still bound, per cent of control: 20%
PRKCE (human)
  kinase still bound, per cent of control: 20%
CAMKK2 (human)
  kinase still bound, per cent of control: 28%
FES (human)
  IC50: 298 µM
